Experimental data as given in ChEMBL document CHEMBL4342442, “Usnic Acid Enaminone-Coupled 1,2,3-Triazoles as Antibacterial and Antitubercular Agents” (J Nat Prod, 2020).
pIC50: −log10 of the molar value. Activity calls are given as the source filed them. The calls are words filed in the database; no cut-off is given here.

Tests used:
[1] = tested on: Mycobacterium tuberculosis; test: Antitubercular activity against Mycobacterium tuberculosis H37Rv assessed as log reduction in bacterial population at 10 ug/ml under starvation condition after 7 days by MPN assay; format: functional
CHO-K1 = test: Cytotoxicity against CHOK1 cells assessed as reduction in cell viability after 24 hrs by MTT assay; format: cell-based; details: Cricetulus griseus, CHO-K1, 24 h
[2] = tested on: Mycobacterium tuberculosis; test: Antitubercular activity against Mycobacterium tuberculosis H37Rv assessed as reduction in microbial growth after 7 days by alamar blue assay; format: functional; details: 168 h
Pseudomonas aeruginosa [3] = test: Antibacterial activity against Pseudomonas aeruginosa MTCC 741 assessed as reduction in microbial growth after 24 hrs by CLSI based microdilution method; format: functional; details: MTCC 741, 24 h
[4] = tested on: Staphylococcus epidermidis; test: Antibacterial activity against Staphylococcus epidermidis assessed as reduction in microbial growth after 24 hrs by CLSI based microdilution method; format: functional
Bacillus subtilis [5] = test: Antibacterial activity against Bacillus subtilis MTCC 441 assessed as reduction in microbial growth after 24 hrs by CLSI based microdilution method; format: functional; details: MTCC 441, 24 h
Staphylococcus aureus [6] = test: Antibacterial activity against Staphylococcus aureus MTCC 96 assessed as reduction in microbial growth after 24 hrs by CLSI based microdilution method; format: functional; details: MTCC 96, 24 h
Klebsiella pneumoniae [7] = test: Antibacterial activity against Klebsiella pneumoniae MTCC 618 assessed as reduction in microbial growth after 24 hrs by CLSI based microdilution method; format: functional; details: MTCC 618, 24 h
Escherichia coli [8] = test: Antibacterial activity against Escherichia coli MTCC 443 assessed as reduction in microbial growth after 24 hrs by CLSI based microdilution method; format: functional; details: MTCC 443, 24 h
Klebsiella pneumoniae [9] = test: Antibacterial activity against Klebsiella pneumoniae MTCC 618 assessed as diameter of zone of inhibition at 200 ug/ml after 24 hrs by agar well diffusion method; format: functional
Staphylococcus aureus [10] = test: Antibacterial activity against Staphylococcus aureus MTCC 96 assessed as diameter of zone of inhibition at 200 ug/ml after 24 hrs by agar well diffusion method; format: functional
[11] = tested on: Staphylococcus epidermidis; test: Antibacterial activity against Staphylococcus epidermidis assessed as diameter of zone of inhibition at 200 ug/ml after 24 hrs by agar well diffusion method; format: functional
Bacillus subtilis [12] = test: Antibacterial activity against Bacillus subtilis MTCC 441 assessed as diameter of zone of inhibition at 200 ug/ml after 24 hrs by agar well diffusion method; format: functional; details: for zone of inhibition at 200 µg/mL: MTCC 441, 24 h, read-out: DIZ
[13] = Cytotoxicity against HEK cells assessed as reduction in cell viability after 24 hrs by MTT assay; format: cell-based, Homo sapiens
Escherichia coli [14] = test: Antibacterial activity against Escherichia coli MTCC 443 assessed as diameter of zone of inhibition at 200 ug/ml after 24 hrs by agar well diffusion method; format: functional
Pseudomonas aeruginosa [15] = test: Antibacterial activity against Pseudomonas aeruginosa MTCC 741 assessed as diameter of zone of inhibition at 200 ug/ml after 24 hrs by agar well diffusion method; format: functional

SMILES: O=C(O)c1cn(C2CC2)c2cc(N3CCNCC3)c(F)cc2c1=O [CIPROFLOXACIN]
- FC [1]: 1.8

SMILES: CO[C@@]12[C@H](COC(N)=O)C3=C(C(=O)C(C)=C(N)C3=O)N1C[C@@H]1N[C@@H]12 [MITOMYCIN]
- pIC50 (CHO-K1): 4.40

SMILES: CC(=O)c1c(O)c(C)c(O)c2c1OC1=CC(=O)/C(=C(/C)NCc3cn(CC(=O)N4CCN(c5ccccc5)CC4)nn3)C(=O)C12C (configuration not stated)
- MIC [2]: 39.9 µM

SMILES: CC(=O)c1c(O)c(C)c(O)c2c1OC1=CC(=O)/C(=C(/C)NCc3cn(CC(=O)c4ccc(Cl)s4)nn3)C(=O)C12C (configuration not stated)
- MIC [2]: 42.9 µM

SMILES: CC(=O)c1c(O)c(C)c(O)c2c1OC1=CC(=O)/C(=C(/C)NCc3cn(CC(=O)N4CCN(c5ccccc5F)CC4)nn3)C(=O)C12C (configuration not stated)
- MIC [2]: 9.7 µM

SMILES: NNC(=O)c1ccncc1 [ISONIAZID]
- FC [1]: 1.5
- MIC [2]: 2.9 µM

SMILES: CC(=O)c1c(O)c(C)c(O)c2c1OC1=CC(=O)/C(=C(/C)NCc3cn(CC(=O)N4CCN(c5ccccc5Cl)CC4)nn3)C(=O)C12C (configuration not stated)
- MIC (Pseudomonas aeruginosa [3]): > 350 µM
- MIC [4]: > 350 µM
- MIC (Bacillus subtilis [5]): 302 µM
- MIC [2]: 37.8 µM
- MIC (Staphylococcus aureus [6]): > 350 µM
- MIC (Klebsiella pneumoniae [7]): > 350 µM
- MIC (Escherichia coli [8]): > 350 µM

SMILES: CC(=O)c1c(O)c(C)c(O)c2c1OC1=CC(=O)/C(=C(/C)NCc3cn(CC(=O)c4nccs4)nn3)C(=O)C12C (configuration not stated)
- MIC [2]: 45.5 µM

SMILES: CC(=O)c1c(O)c(C)c(O)c2c1OC1=CC(=O)/C(=C(/C)NCc3cn(CC(=O)c4c(F)c(F)c(F)c(F)c4F)nn3)C(=O)C12C (configuration not stated)
- MIC (Pseudomonas aeruginosa [3]): > 350 µM
- pIC50 (CHO-K1): 4.17
- MIC [4]: > 350 µM
- diameter of the inhibition zone (DIZ) (Klebsiella pneumoniae [9]): inactive
- diameter of the inhibition zone (DIZ) (Staphylococcus aureus [10]): inactive
- MIC (Bacillus subtilis [5]): 158 µM
- diameter of the inhibition zone (DIZ) [11]: inactive
- MIC [2]: 39.5 µM
- zone of inhibition at 200 µg/mL (Bacillus subtilis [12]): 12 mm
- MIC (Staphylococcus aureus [6]): > 350 µM
- IC50 [13]: Non-Toxic
- diameter of the inhibition zone (DIZ) (Escherichia coli [14]): inactive
- MIC (Klebsiella pneumoniae [7]): > 350 µM
- MIC (Escherichia coli [8]): > 350 µM
- diameter of the inhibition zone (DIZ) (Pseudomonas aeruginosa [15]): inactive

SMILES: CC(=O)C1=C(O)C=C2Oc3c(C(C)=O)c(O)c(C)c(O)c3C2(C)C1=O (configuration not stated)
- MIC [2]: 35.6 µM

SMILES: CC(=O)c1c(O)c(C)c(O)c2c1OC1=CC(=O)/C(=C(/C)NCc3cn(CC(=O)N4CCN(C/C=C/c5ccccc5)CC4)nn3)C(=O)C12C (configuration not stated)
- MIC [2]: 37.5 µM

SMILES: CC(=O)c1c(O)c(C)c(O)c2c1OC1=CC(=O)/C(=C(/C)NCc3cn(CC(=O)c4ccc(-c5ccccc5)cc4)nn3)C(=O)C12C (configuration not stated)
- MIC [2]: 48.2 µM

SMILES: CC(=O)c1c(O)c(C)c(O)c2c1OC1=CC(=O)/C(=C(/C)NCc3cn(CC(=O)c4cc5ccccc5s4)nn3)C(=O)C12C (configuration not stated)
- MIC [2]: 41.8 µM

SMILES: CC(=O)c1c(O)c(C)c(O)c2c1OC1=CC(=O)/C(=C(/C)NCc3cn(CC(=O)c4ccccc4)nn3)C(=O)C12C (configuration not stated)
- MIC [2]: 46.1 µM

SMILES: CC(=O)c1c(O)c(C)c(O)c2c1OC1=CC(=O)/C(=C(/C)NCc3cn(CC(=O)c4cccs4)nn3)C(=O)C12C (configuration not stated)
- MIC [2]: 45.6 µM

SMILES: CC(=O)c1c(O)c(C)c(O)c2c1OC1=CC(=O)/C(=C(/C)NCc3cn(CC(=O)c4cccc(C(F)(F)F)c4)nn3)C(=O)C12C (configuration not stated)
- MIC (Pseudomonas aeruginosa [3]): > 350 µM
- pIC50 (CHO-K1): 4.59
- MIC [4]: > 350 µM
- diameter of the inhibition zone (DIZ) (Klebsiella pneumoniae [9]): inactive
- diameter of the inhibition zone (DIZ) (Staphylococcus aureus [10]): inactive
- MIC (Bacillus subtilis [5]): 40.9 µM
- diameter of the inhibition zone (DIZ) [11]: inactive
- MIC [2]: 41 µM
- zone of inhibition at 200 µg/mL (Bacillus subtilis [12]): 15 mm
- MIC (Staphylococcus aureus [6]): > 350 µM
- pIC50 ([13]; Homo sapiens, HEK293, 24 h, read-out: IC50): 4.04
- diameter of the inhibition zone (DIZ) (Escherichia coli [14]): inactive
- MIC (Klebsiella pneumoniae [7]): > 350 µM
- MIC (Escherichia coli [8]): > 350 µM
- diameter of the inhibition zone (DIZ) (Pseudomonas aeruginosa [15]): inactive

SMILES: CC(=O)c1c(O)c(C)c(O)c2c1OC1=CC(=O)/C(=C(/C)NCc3cn(CC(=O)N4CCSCC4)nn3)C(=O)C12C (configuration not stated)
- MIC (Pseudomonas aeruginosa [3]): > 350 µM
- MIC [4]: > 350 µM
- diameter of the inhibition zone (DIZ) (Klebsiella pneumoniae [9]): inactive
- diameter of the inhibition zone (DIZ) (Staphylococcus aureus [10]): inactive
- MIC (Bacillus subtilis [5]): > 350 µM
- diameter of the inhibition zone (DIZ) [11]: inactive
- MIC [2]: 44 µM
- diameter of the inhibition zone (DIZ) (Bacillus subtilis [12]): inactive
- MIC (Staphylococcus aureus [6]): > 350 µM
- diameter of the inhibition zone (DIZ) (Escherichia coli [14]): inactive
- MIC (Klebsiella pneumoniae [7]): > 350 µM
- MIC (Escherichia coli [8]): > 350 µM
- diameter of the inhibition zone (DIZ) (Pseudomonas aeruginosa [15]): inactive

SMILES: CC(=O)c1c(O)c(C)c(O)c2c1OC1=CC(=O)/C(=C(/C)NCc3cn(CC(=O)c4ccc(Cl)c(Cl)c4)nn3)C(=O)C12C (configuration not stated)
- MIC [2]: 40.9 µM

SMILES: CC(=O)c1c(O)c(C)c(O)c2c1OC1=CC(=O)/C(=C(/C)NCc3cn(CC(=O)c4ccc(Cl)cc4)nn3)C(=O)C12C (configuration not stated)
- MIC [2]: 10.8 µM

SMILES: CC(=O)c1c(O)c(C)c(O)c2c1OC1=CC(=O)/C(=C(/C)NCc3cn(CC(=O)c4c5ccccc5cc5ccccc45)nn3)C(=O)C12C (configuration not stated)
- MIC [2]: 9.7 µM
